Assay results: the NIST ThermoML archive (doi:10.1021/je300853z)

Assay: molar heat capacity at constant pressure; xn = mol fraction of the nth substance listed
Conditions: 101 kPa, Liquid, Small sample (50 mg) DSC

CCCCCCCC[n+]1ccc2ccccc2c1.N#C[S-] [2-octylisoquinolinium thiocyanate] + O
molar heat capacity at constant pressure [J/K/mol]
Conditions | 278.15 K | 283.15 K | 288.15 K | 293.15 K | 298.15 K | 303.15 K | 308.15 K
x1 = 0.3977 | 248 | 250 | 251 | 253 | 255 | 257 | 258
x1 = 0.5237 | 295 | 304 | 306 | 309 | 311 | 313 | 315
x1 = 0.5945 | 334 | 337 | 340 | 342 | 344 | 347 | 349
x1 = 0.7214 | 386 | 388 | 391 | 393 | 396 | 398 | 400
x1 = 0.8097 | 423 | 426 | 429 | 432 | 434 | 437 | 439
x1 = 0.8935 | 467 | 470 | 474 | 476 | 479 | 482 | –
